The text below walks through data of patent publication US8252781B2, “1,2-diazetidin-3-one derivatives and drugs containing same” (Kowa Company, Ltd., priority 2008, dated 2012).

Structures are written as SMILES. Where two headings read alike, the source gives them in different places.

As a reminder, the IC50 is the point on the concentration scale where inhibition reaches its midpoint.

In one test the target is T1, human 11β-HSD1 (Homo sapiens, UniProt P28845).
T1 construct: The obtained PCR products of about 0.9 kbp, 1.2 kbp, and 0.9 kbp were subcloned into an expression vector pcDNA3.1+/Zeo; expressed in transfected cells
T1 sequence (P28845 whole entry): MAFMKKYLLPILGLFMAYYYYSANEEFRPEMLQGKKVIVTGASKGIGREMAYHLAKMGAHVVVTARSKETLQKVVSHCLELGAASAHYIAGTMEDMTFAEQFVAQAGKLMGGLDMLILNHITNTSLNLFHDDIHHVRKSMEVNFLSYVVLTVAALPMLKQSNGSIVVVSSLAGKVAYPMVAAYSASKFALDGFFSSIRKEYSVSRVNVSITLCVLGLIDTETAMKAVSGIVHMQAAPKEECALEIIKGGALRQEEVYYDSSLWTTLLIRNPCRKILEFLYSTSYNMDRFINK
Description: Enzyme inhibitory activity, human 11β-HSD1 (lysate of stably expressing HEK293 cells, cortisol by competitive ELISA). The format is biochemical. The conditions noted are these: human 11β-HSD1, cell lysate, 37° C. for 1 hour, read-out: h HSD1 in vitro assay (IC50 uM). As for the experimental part: (§1) 1. Human 11β-HSD1-, Human 11β-HSD2- and Mouse 11β-HSD1-Gene Clonings and Establishment of Stably Expressing Cells
(§2) Human 11β-HSD1-, human 11β-HSD2-, and mouse 11β-HSD1-gene clonings were conducted using as a template a reverse transcription product of human-liver RNA, human-kidney RNA (CELL APPLICATIONS), and mouse-kidney RNA respectively, by means of PCR cloning with reference to nucleotide sequences of Genbank Accession Nos. NM_005525, NM_000196, and NM_008288. The obtained PCR products of about 0.9 kbp, 1.2 kbp, and 0.9 kbp were subcloned into an expression vector pcDNA3.1+/Zeo (Invitrogen).
(§3) Human 11β-HSD1- and human 11β-HSD2-expressing vectors were transfected into human kidney-derived cell line, HEK293 cells, using a transfection reagent, jet PEI (Funakoshi). Mouse 11β-HSD1 was transfected to Chinese hamster ovary-derived cell line, CHO-K1 cells. Selection was conducted with 200-400 μg/mL of zeocine (Invitrogen) to provide stably expressing-cell clones. The stably expressing cells were suspended in buffer solution A (20 mmol/L Tris-HCl, pH 7.4, 250 mmol/L sucrose, 1 mmol/L EGTA, 1 mmol/L EDTA, 1 mmol/L MgCl2), sonicated, and then stored at −80° C.
(§4) 2. Assay of Enzyme Inhibitory Activity
(§5) An enzymatic reaction was conducted using a polystyrene 96-well plate. Each well was added with 1 μL of a test agent dissolved in DMSO and then diluted (0.003 to 3 mmol/L), and further added with 10 μL of cell lysate diluted to a concentration of 0.1 mg/mL to 0.4 mg/mL. Next, 90 μL of buffer solution A containing substrate (100 nmol/L cortisone or cortisol) and coenzyme (400 μmol/L NADPH or NAD+) was added and the mixture was incubated at 37° C. for 1 hour. The enzymatic reaction was stopped by treating at 95° C. for 3 minutes. Cortisol that was present in the reaction solution was determined by a competitive ELISA shown below.
(§6) Anti-rabbit IgG antibody (Chemi-con) diluted to 2 μg/mL with carbonate buffer solution (pH 9.6) was added in 100 μL each to a 96-well immuno plate (Nunc) and immobilized by an incubation at 4° C. overnight. 50 μL of enzymatic reaction solution was put onto the plates, and further, anti-cortisol antibody (Cosmo Bio) and HRP-labeled cortisol (Cosmo Bio), diluted with buffer solution B (25 mmol/L Tris-HCl pH 7.4, 137 mmol/L NaCl, 2.68 mmol/L KCl), were added in 50 μL respectively and incubated at 4° C. overnight. After washed three times with buffer solution B containing 0.05% Tween 20, the plates were allowed to develop color by adding 100 μL of color reagent, TMB (Moss). The color reaction was stopped by 25 μL of 1 mol/L sulfuric acid and the absorbance was determined at 450 nm with a microplate reader (Molecular Device, VersaMax).
(§7) The values of human 11β-HSD1, human 11β-HSD2, and mouse 11β-HSD1 activities were subtracted from 100, and the resultant values were regarded as the respective 11β-HSD inhibition rates of example compounds. […] The comparison of human 11β-HSD1 and human 11β-HSD2 inhibiting activities is shown in Table 1, and the comparison of human 11β-HSD1 and mouse 11β-HSD1 inhibiting activities is shown in Table 2.
For orientation: An ELISA detects its analyte on a solid surface through an enzyme-linked reagent.

For another test, the target named is T2, mouse 11β-HSD1 (Mus musculus, UniProt P50172).
T2 construct: The obtained PCR products of about 0.9 kbp, 1.2 kbp, and 0.9 kbp were subcloned into an expression vector pcDNA3.1+/Zeo; expressed in transfected cells
T2 sequence (P50172 whole entry): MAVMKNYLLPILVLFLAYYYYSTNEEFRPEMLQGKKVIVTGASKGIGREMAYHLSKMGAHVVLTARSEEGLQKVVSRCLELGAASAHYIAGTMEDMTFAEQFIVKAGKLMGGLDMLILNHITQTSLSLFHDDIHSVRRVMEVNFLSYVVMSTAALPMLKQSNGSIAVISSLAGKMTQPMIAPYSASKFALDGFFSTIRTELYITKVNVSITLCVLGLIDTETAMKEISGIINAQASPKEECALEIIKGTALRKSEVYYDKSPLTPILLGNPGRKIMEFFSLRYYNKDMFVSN
Description: Enzyme inhibitory activity, mouse 11β-HSD1 (lysate of stably expressing CHO-K1 cells, cortisol by competitive ELISA). The conditions noted are these: Table 2; mouse 11β-HSD1, cell lysate, 37° C. for 1 hour; read-out: m HSD1 in vitro assay (IC50 uM). The test is classed as biochemical. As for the experimental part:
as §1, §2, §3, §4, §5, §6, §7

With `CC1(C)C(=O)N([C@H]2C3CC4CC2C[C@](O)(C4)C3)N1Cc1ccccc1C(F)(F)F` [Example 66, trans-2-(5-hydroxyadamantan-2-yl)-4,4-dimethyl-1-[2-(trifluoromethyl)benzyl]-1,2-diazetidin-3-one], the IC50 on human 11β-HSD1 (Table 1) was 0.09 µM; at mouse 11β-HSD1, 0.57 µM.

For `CC1(C)C(=O)N(C2C3CC4CC(C3)CC2C4)N1CCCc1ccccc1` (stereo not shown) [Example 261, 4,4-dimethyl-1-(3-phenylpropyl)-2-(adamantan-2-yl)-1,2-diazetidin-3-one], the 50% inhibitory concentration (IC50) came out at 0.45 µM on human 11β-HSD1 (Table 2) and 0.7 µM on mouse 11β-HSD1.

`CC1(C)C(=O)N(C2C3CC4CC(C3)CC2C4)N1Cc1cccc(Cl)c1F` (stereo not shown) [Example 59, 1-(3-chloro-2-fluorobenzyl)-4,4-dimethyl-2-(adamantan-2-yl)-1,2-diazetidin-3-one]: the half-maximal inhibitory concentration (IC50) is 0.25 µM at human 11β-HSD1 (Table 2) and 0.064 µM on mouse 11β-HSD1.

Take `Cc1cccc(CN2N(C3C4CC5CC(C4)CC3C5)C(=O)C2(C)C)c1` (stereo not shown) [Example 32, 4,4-dimethyl-1-(3-methylbenzyl)-2-(adamantan-2-yl)-1,2-diazetidin-3-one]: the half-maximal inhibitory concentration (IC50) on human 11β-HSD1 (Table 2) was 0.25 µM; at mouse 11β-HSD1, 0.054 µM.

For the compound `CC1(C)C(=O)N(C2C3CC4CC(C3)CC2C4)N1C(=O)c1ccccc1` (stereo not shown) [Example 96, 4,4-dimethyl-1-(phenylcarbonyl)-2-(adamantan-2-yl)-1,2-diazetidin-3-one], the IC50 amounted to 0.8 µM at human 11β-HSD1 (Table 2) and 0.22 µM at mouse 11β-HSD1.

`Cc1cccc(N2N(C3C4CC5CC(C4)CC3C5)C(=O)C2(C)C)c1C` (stereo not shown) [Example 207, 1-(2,3-dimethylphenyl)-4,4-dimethyl-2-(adamantan-2-yl)-1,2-diazetidin-3-one]: the IC50 at human 11β-HSD1 (Table 2) was found to be 0.61 µM; on mouse 11β-HSD1, 0.054 µM.

`CC1(C)C(=O)N(C2C3CC4CC(C3)CC2C4)N1Cc1cccc(Cl)c1Cl` (stereo not shown) [Example 43, 1-(2,3-dichlorobenzyl)-4,4-dimethyl-2-(adamantan-2-yl)-1,2-diazetidin-3-one]: the IC50 at human 11β-HSD1 (Table 2) was 0.072 µM; at mouse 11β-HSD1, 0.074 µM.

As for `CC1(C)C(=O)N(C2C3CC4CC(C3)CC2C4)N1C(=O)c1cc(Cl)cc(Cl)c1` (stereo not shown) [Example 117, 1-[(3,5-dichlorophenyl)carbonyl]-4,4-dimethyl-2-(adamantan-2-yl)-1,2-diazetidin-3-one], the values for the concentration for half-maximal inhibition (IC50) at human 11β-HSD1 (Table 2) and on mouse 11β-HSD1 were 0.98 µM and 0.39 µM, respectively.

For `Cc1ccc(CN2N(C3C4CC5CC(C4)CC3C5)C(=O)C2(C)C)cc1` (stereo not shown) [Example 14, 4,4-dimethyl-1-(4-methylbenzyl)-2-(adamantan-2-yl)-1,2-diazetidin-3-one], the IC50 worked out at 0.84 µM on human 11β-HSD1 (Table 2) and 0.088 µM on mouse 11β-HSD1.

Turning to `CC1(C)C(=O)N(C2CC3CCC2C3)N1c1cccc(Cl)c1Cl` (stereo not shown) [Example 224, 2-(bicyclo[2.2.1]heptan-2-yl)-1-(2,3-dichlorophenyl)-4,4-dimethyl-1,2-diazetidin-3-one], the IC50 at human 11β-HSD1 (Table 1) is 0.044 µM; at mouse 11β-HSD1, 0.34 µM.

On to `Cc1c(F)cccc1C(=O)N1N(C2C3CC4CC(C3)CC2C4)C(=O)C1(C)C` (stereo not shown) [Example 157, 1-[(3-fluoro-2-methylphenyl)carbonyl]-4,4-dimethyl-2-(adamantan-2-yl)-1,2-diazetidin-3-one], for which the IC50 on human 11β-HSD1 (Table 1) was determined as 0.44 µM; on mouse 11β-HSD1, 0.15 µM.

Take `CC1C(=O)N(C2C3CC4CC(C3)CC2C4)N1Cc1ccccc1` (stereo not shown) [Example 8, 1-benzyl-4-methyl-2-(adamantan-2-yl)-1,2-diazetidin-3-one]: the IC50 came out at 0.79 µM on human 11β-HSD1 (Table 2) and 0.18 µM on mouse 11β-HSD1.

As to `CC1(C)C(=O)N(C2CCCCCCC2)N1C(=O)c1ccccc1N` [Example 153, 1-[(2-aminophenyl)carbonyl]-2-cyclooctyl-4,4-dimethyl-1,2-diazetidin-3-one], the IC50 at human 11β-HSD1 (Table 1) amounted to 0.14 µM; on mouse 11β-HSD1 it was 0.032 µM.

On to `CC1(C)C(=O)N([C@H]2C3CC4CC2C[C@](O)(C4)C3)N1c1ccc(F)c2ccccc12` [Example 238, trans-1-(4-fluoronaphthalen-1-yl)-2-(5-hydroxyadamantan-2-yl)-4,4-dimethyl-1,2-diazetidin-3-one], for which the results for the IC50 at human 11β-HSD1 (Table 1) and on mouse 11β-HSD1 were 0.02 µM and 0.38 µM, respectively.

Regarding `CC1(C)C(=O)N(C2C3CC4CC(C3)CC2C4)N1C(=O)c1ccc(Br)cc1` (stereo not shown) [Example 106, 1-[(4-bromophenyl)carbonyl]-4,4-dimethyl-2-(adamantan-2-yl)-1,2-diazetidin-3-one], the IC50 was 0.75 µM on human 11β-HSD1 (Table 2) and 0.17 µM at mouse 11β-HSD1.

As for `CC1(C)C(=O)N(C2C3CC4CC(C3)CC2C4)N1Cc1ccc(F)cc1F` (stereo not shown) [Example 17, 1-(2,4-difluorobenzyl)-4,4-dimethyl-2-(adamantan-2-yl)-1,2-diazetidin-3-one], the IC50 on human 11β-HSD1 (Table 2) was 0.71 µM; at mouse 11β-HSD1, 0.23 µM.

Regarding `CC1(C)C(=O)N([C@H]2C3CC4CC2C[C@](O)(C4)C3)N1c1ccccc1O` [Example 233, trans-1-(2-hydroxyphenyl)-2-(5-hydroxyadamantan-2-yl)-4,4-dimethyl-1,2-diazetidin-3-one], the IC50 on human 11β-HSD1 (Table 2) stood at 0.18 µM; on mouse 11β-HSD1, 0.27 µM.

With `CC1(C)C(=O)N(C2C3CC4CC(C3)CC2C4)N1Cc1cccc2ccccc12` (stereo not shown) [Example 63, 4,4-dimethyl-1-(naphthalen-1-ylmethyl)-2-(adamantan-2-yl)-1,2-diazetidin-3-one], the values for the 50% inhibitory concentration (IC50) on human 11β-HSD1 (Table 2) and at mouse 11β-HSD1 were 0.015 µM and 0.41 µM, respectively.

Take `Cc1ccc(F)cc1C(=O)N1N(C2C3CC4CC(C3)CC2C4)C(=O)C1(C)C` (stereo not shown) [Example 125, 1-[(5-fluoro-2-methylphenyl)carbonyl]-4,4-dimethyl-2-(adamantan-2-yl)-1,2-diazetidin-3-one]: the IC50 was found to be 0.47 µM on human 11β-HSD1 (Table 1) and 0.42 µM on mouse 11β-HSD1.

In the case of `COc1ccccc1CN1N(C2C3CC4CC(C3)CC2C4)C(=O)C1(C)C` (stereo not shown) [Example 51, 1-(2-methoxybenzyl)-4,4-dimethyl-2-(adamantan-2-yl)-1,2-diazetidin-3-one], the IC50 is 0.082 µM on human 11β-HSD1 (Table 2) and 0.58 µM at mouse 11β-HSD1.

Turning to `Cc1ccc(CN2N(C3C4CC5CC(C4)CC3C5)C(=O)C2(C)C)c(C)c1` (stereo not shown) [Example 55, 1-(2,4-dimethylbenzyl)-4,4-dimethyl-2-(adamantan-2-yl)-1,2-diazetidin-3-one], the IC50 was determined as 0.067 µM on human 11β-HSD1 (Table 2) and 0.069 µM on mouse 11β-HSD1.

`Cc1cccc(C(=O)N2N(C3C4CC5CC(C4)CC3C5)C(=O)C2(C)C)c1` (stereo not shown) [Example 109, 4,4-dimethyl-1-[(3-methylphenyl)carbonyl]-2-(adamantan-2-yl)-1,2-diazetidin-3-one]: the IC50 at human 11β-HSD1 (Table 2) is 0.75 µM; at mouse 11β-HSD1, 0.2 µM.

Consider `CC1C(=O)N(C2C3CC4CC(C3)CC2C4)N1Cc1ccc(Cl)cc1` (stereo not shown) [Example 9, 1-(4-chlorobenzyl)-4-methyl-2-(adamantan-2-yl)-1,2-diazetidin-3-one], for which the IC50 at human 11β-HSD1 (Table 2) was 0.68 µM; at mouse 11β-HSD1 it was 0.24 µM.

Regarding `CC1(C)C(=O)N(C2C3CC4CC(C3)CC2C4)N1Cc1ccc2ccccc2c1` (stereo not shown) [Example 64, 4,4-dimethyl-1-(naphthalen-2-ylmethyl)-2-(adamantan-2-yl)-1,2-diazetidin-3-one], the IC50 at human 11β-HSD1 (Table 2) was found to be 0.6 µM; on mouse 11β-HSD1, 0.041 µM.

Regarding `CC1(C)C(=O)N(C2C3CC4CC(C3)CC2C4)N1Cc1cc(Cl)ccc1Cl` (stereo not shown) [Example 44, 1-(2,5-dichlorobenzyl)-4,4-dimethyl-2-(adamantan-2-yl)-1,2-diazetidin-3-one], the IC50 at human 11β-HSD1 (Table 2) came out at 0.044 µM; at mouse 11β-HSD1, 0.073 µM.

Turning to `Cc1c(F)cccc1CN1N(C2C3CC4CC(C3)CC2C4)C(=O)C1(C)C` (stereo not shown) [Example 58, 1-(3-fluoro-2-methylbenzyl)-4,4-dimethyl-2-(adamantan-2-yl)-1,2-diazetidin-3-one], the values for the IC50 on human 11β-HSD1 (Table 2) and on mouse 11β-HSD1 were 0.026 µM and 0.061 µM, respectively.
